Measurements from paper PMC11359794, “Amorphous Polymer–Phospholipid Solid Dispersions for the Co-Delivery of Curcumin and Piperine Prepared via Hot-Melt Extrusion” (Pharmaceutics, 2024).
Values after ≈ are worked out from the molar mass of the structure shown. Where two headings read alike, the source gives them in different places. Marks after values point to notes of the source that are not given here.

Legend:
[1] = Solubility studies (excess powder, 24 h, 25 °C, HPLC); assay type: physicochemical; conditions: for solubility at 24 h: 25 °C; for Solubility classification: based on solubility test at pH 1.2 and pH 6.8, crystalline compounds
Text: HPLC was used to measure the concentrations of piperine and curcumin in samples taken during permeability, dissolution, and solubility investigations. A Shimadzu LC-2050C (Shimadzu Corp., Kyoto, Japan) was equipped with a diode array detector (DAD). A Dr. Maisch ReproSil-Pur Basic-C18 100 Å column with a 5 μm particle size and a 100 × 4.60 mm size (Dr. Maisch, Ammerbuch-Entringen, Germany) was used as a stationary phase. HPLC-grade methanol/0.1% acetic acid (85:15 v/v) was used as the mobile phase. The mobile phase was vacuum filtered through a 0.45 μm nylon filter (Phenomenex, Torrance, CA, USA). The analysis parameters were as follows: a flow rate of 0.3 mL/min, a wavelength of 420 nm for curcumin and 340 nm for piperine, and a column temperature of 30 °C. The injection volume differed depending on the assay. […] The duration of the run was 9 min. […] Chromatograms (Figure S1) and method validation parameters (Table S1) were added to the Supplementary Materials. The following steps were used to prepare phosphate buffer at pH 6.8: In a 1000 mL volumetric flask, 250 mL of 0.2 N potassium dihydrogen phosphate solution was added, followed by 112 mL of a 0.2 N sodium hydroxide solution. Purified water was added to make the volume up to 1000 mL. A hydrochloric acid solution with a pH of 1.2 was prepared according to the manufacturer's instructions ([…], Poznań, Poland) from the analytically weighed amount. A 10 mL glass tube was filled with an excess amount of powder (corresponding to 4 mg of each active substance). […] The obtained solutions were filtered, diluted 1:20 v/v with water, and filtered again through a 0.2 μm PTFE membrane filter (Sigma-Aldrich, St. Louis, MO, USA) and analyzed using the HPLC method described above.

[2] = Differential scanning calorimetry (glass transition, glass-forming ability); assay type: physicochemical; conditions: heating–cooling–heating, different cooling rates; no crystallization during cooling and following heating
Protocol: A DSC 214 Polyma differential scanning calorimeter (Netzsch, Selb, Germany) was used for the thermal analysis. Samples of about 5–10 mg were put into crimped aluminum pans with a small hole in the lid. To remove water from the samples, they were heated to 80 °C and kept for 8 min at this temperature, cooled to 25 °C, and then heated again to 235 °C. Raw compounds were heated to 235 °C, cooled to 25 °C, and then heated once again to 235 °C to determine their glass transition temperature (Tg). […] The Tg was taken as the midpoint between onset and endpoint temperatures. Various heating–cooling–heating cycles were carried out to evaluate the glass-forming abilities.

[3] = PAMPA permeability assay, blood-brain barrier (BBB) model; assay type: in vitro ADME; conditions: donor pH ≈7.4, 4 h, 37 °C
Text: (§1) HPLC was used to measure the concentrations of piperine and curcumin in samples taken during permeability, dissolution, and solubility investigations. A Shimadzu LC-2050C (Shimadzu Corp., Kyoto, Japan) was equipped with a diode array detector (DAD). A Dr. Maisch ReproSil-Pur Basic-C18 100 Å column with a 5 µm particle size and a 100 × 4.60 mm size (Dr. Maisch, Ammerbuch-Entringen, Germany) was used as a stationary phase. HPLC-grade methanol/0.1% acetic acid (85:15 v/v) was used as the mobile phase. The mobile phase was vacuum filtered through a 0.45 µm nylon filter (Phenomenex, Torrance, CA, USA). The analysis parameters were as follows: a flow rate of 0.3 mL/min, a wavelength of 420 nm for curcumin and 340 nm for piperine, and a column temperature of 30 °C. The injection volume differed depending on the assay. […] The duration of the run was 9 min. […] Chromatograms (Figure S1) and method validation parameters (Table S1) were added to the Supplementary Materials. The Parallel Artificial Membrane Permeability Assay (PAMPA) models were used to study the permeability of the blood-brain barrier (BBB) and the gastrointestinal tract (GIT) in vitro. Two 96-well microfilter plates formed the sandwich. There were two chambers in the PAMPA system: the acceptor chamber at the top and the donor chamber at the bottom. […]

[4] = PAMPA permeability assay, gastrointestinal tract (GIT) model; assay type: in vitro ADME; conditions: donor pH ≈6.8, 4 h, 37 °C
Text: as §1

[5] = cited from earlier work

solubility at 24 h ([1]; HCl solution, pH 1.2 HCl, read-out: Solubility, Curcumin Conc.) [µg/mL]	Permeability, Curcumin Conc. in the acceptor solution [3]	Permeability, Curcumin Conc. in the acceptor solution [4]	SMILES	Solubility classification [1]	Glass-forming ability [2]	solubility at 24 h ([1]; HCl solution, simulated gastric fluid, thermodynamic from solid, pH 1.2 HCl, read-out: Solubility, Piperine Conc.) [µg/mL]	solubility at 24 h ([1]; aqueous buffer, thermodynamic from solid, pH 6.8 phosphate buffer, read-out: Solubility, Piperine Conc.) [µg/mL]	Permeability, Piperine Conc. in the acceptor solution [3]	Permeability, Piperine Conc. in the acceptor solution [4]	Log P [5]
0.11 ± 0.01 (≈ 0.299 µM)	0.00016 ± 0.000057 ^f mg/mL	0.00061 ± 0.000038 ^g mg/mL	COc1cc(/C=C/C(=O)CC(=O)/C=C/c2ccc(O)c(OC)c2)ccc1O [Curcumin]	practically insoluble	good glass-forming ability					
			O=C(/C=C/C=C/c1ccc2c(c1)OCO2)N1CCCCC1 [Piperine]	practically insoluble	good glass-forming ability	9 ± 0.6 (≈ 31.5 µM)	8 ± 0.4 (≈ 28 µM)	0.0051 ± 0.0003 ^f mg/mL	0.0044 ± 0.0008 ^g mg/mL	2.78
